In patent US7173014B2, “HIV-specific synthetic oligonucleotides and methods of their use” (priority 1997, dated 2007):

Experiments:
[1] = tested on: HIV-2 (ROD); assay: XTT-based anti-HIV assay, HIV-2; format: cell-based; conditions: XTT assay
Source text: The initial experiment performed involved evaluation of Oligos 12, 32, and 41 against three laboratory strains of HIV-1 (IIIB, RF and SK1) and one strain of HIV-2 (ROD) in parallel with the positive control compound ddC in the XTT-based anti-HIV assay. All these oligonucleotides are active against both HIV-1 and HIV-2.
CEM-SS sells (AIDS Research and Reference Reagent Program, NIH) or other established human T cell lines used in these experiments were passaged in T-150 flasks for use in the assay. On the day preceding the assay, the cells were split 1:2 to assure they would be in an exponential growth phase at time of infection. On the day of assay the cells were washed twice with tissue culture medium and resuspended in fresh tissue cultures medium. Total cell and viability counting was performed using a hemacytometer and trypan blue dye exclusion. Cell viability was greater than 95% for the cells to be utilized in the assay. The cells were pelleted and resuspended at 2.5×10^4 cells per ml in tissue culture medium. Cells were added to the drug-containing plates in a volume of 50 μl.
A pretitered aliquot of virus was removed from the freezer −80° C.) and allowed to thaw slowly to room temperature in a biological safety cabinet. The virus was resuspended and diluted into tissue culture medium such that the amount of virus added to each well in a volume of 50 μl will be the amount determined to give complete cell killing at 6 days post-infection. In general the virus pools produced with the IIIB isolate of HIV required the addition of 5 μl of virus per well.
Each plate contained cell control wells (cells only), virus control wells (cells plus virus), drug toxicity control wells (cells plus drug only), drug colorimetric control wells (drug only) as well as experimental wells (drug plus cells plus virus).
After 6 days of incubation at 37° C. in a 5% CO2 incubator, the test plates were analyzed by staining with the tetrazolium dye XTT. XTT-tetrazolium is metabolized by the mitochondrial enzymes of metabolically active cells to a soluble formazan product, allowing the rapid quantitative analysis of the inhibition of HIV-induced cell killing by anti-HIV test substances. On day 6 post-infection plates were removed from the incubator and observed. The use of round bottom microtiter plates allows rapid macroscopic analysis of the activity of a given test compound by the evaluation of pellet size. The results of the macroscopic observations were confirmed and enhanced by further microscopic analysis.
XTT solution was prepared daily as a stock of 1 mg/ml in PBS. Phenazine methosulfate (PMS) solution was prepared at 15 mg/ml in PBS and stored in the dark at −20° C. XTT/PMS stock was prepared immediately before use by diluting the PMS 1:100 into PBS and adding 40 μl per ml of XTT solution. Fifty microliters of XTT/PMS was added to each well of the plate and the plate was incubated for an additional 4 hours at 37° C. Adhesive plate sealers were used in place of the lids, the sealed plate was inverted several times to mix the soluble formazan product and the plate was read spectrophotometrically at A450 nm with a Molecular Devices Vmax plate reader.

[2] = tested on: fresh human peripheral blood mononuclear cells; assay: Toxicity in uninfected and HIV-1 infected fresh human PBMC (XTT, MTT, trypan blue, tritiated thymidine); format: cell-based
Experimental: In yet another experiment, the toxicity of Oligo 41 was evaluated in uninfected and HIV-1 infected fresh human peripheral blood mononuclear cells, using a variety of quantitative endpoints. Toxicity was evaluated using the tetrazolium dyes XTT or MTT, trypan blue cell and cell viability counting and the incorporation of tritiated thymidine. Two replicate assays were performed. In the first assay, Oligo 41 was used at a high test concentration of 50 μg/ml and toxicity was evaluated on day 7. […] A second assay was performed to further evaluate toxicity at higher compound concentration and with longer exposure to the compound.
For the PBL assay, PHA-P stimulated cells from at least two normal donors were pooled, set in fresh medium at 2×10^6/ml, and plated in the interior wells of a 96 well round bottom microplate at 50 μL/well. Test drug dilutions were prepared at a 2× concentration in microtiter tubes, and 100 μl of each concentration was placed in appropriate wells in a standard format. Fifty microliters of a predetermined dilution of virus stock was placed in each test well. […]
Tritiated thymidine incorporation was measured in parallel cultures at day 7. […] The filters were dried, placed in a scintillation vial with 1 ml of scintillation cocktail and incorporated radioactivity was quantified on a liquid scintillation counter (e.g., Packard Tri-Carb 1900 TR450).

[3] = tested on: monocyte-macrophage-tropic strains BaL and ADA; assay: Anti-HIV assay in fresh human monocyte-macrophages; format: cell-based, HIV-1
Experimental: In addition to these T-tropic strains, the activity of the compounds was also evaluated against the monocyte-macrophage strains BaL and ADA. Oligos 12 and 32 according to the invention, as well as Oligo 41 are active against low passage clinical T-tropic strains of HIV-1. The activity of the compounds varies from strain to strain. The compounds were not active against the monocyte-macrophage-tropic strains BaL and ADA.
For isolation of adherent cells, 3×10^6 non-PHA stimulated peripheral blood cells were resuspended in Hanks buffered saline (with calcium and magnesium) supplemented with 10% human AB serum. The cells were placed in a 24-well microtiter plate at 37° C. for 2 hours. Non-adherent cells were removed by vigorously washing six times. The adherent cells were cultured for 7 days in RPMI 1640 tissue culture medium with 15% fetal bovine serum. The cultures were carefully monitored for confluency during this incubation period. Infection of the cells was performed with the monocytotropic HIV-1 strains BaL or ADA and the matched pair of AZT-sensitive and AZT-resistant virus isolates. Each of these virus isolates was obtained from the NIAID AIDS Research and Reference Reagent Program. High titer pools of each of these viruses have been harvested from infected cultures of peripheral blood adherent cells and frozen in 1.0 ml aliquots at −80° C. Monocyte-macrophage monolayers were infected at an MOI of 0.1. Compounds to be evaluated in the monocyte-macrophage assay are added to the monolayers shortly before infection in order to maximize the potential for identifying active compounds.
At 2 days post-infection, the medium was decanted and the cultures washed twice with complete medium in order to remove excess virus. […] Control curves are generated in each assay to accurately quantify the amount of capsid protein in each sample. Data was obtained by spectrophotometric analysis at 450 nm using a plate reader (Molecular Devices Vmax). P24 concentrations were calculated from the optical density values by use of the Molecular Device software package Soft Max.

Oligo 41: oligonucleotide having SEQ ID NO:6; sequence not printed, not listed in TABLE 2 (UCGCACCCATCTCTCTCCUUC; chemistry not given here)
level of activity against the HIV-2 strain ROD ([1]; compared with the HIV-1 strains): enhanced level of activity
activity against HIV-2 ([1]; strain ROD): active
toxicity ([2]; high test concentration 50 μg/ml, day 7, any quantitative endpoint): No toxicity was detected
toxicity ([2]; high test concentration 150 μg/ml, exposure extended to 14 days): no toxicity was detected
activity against monocyte-macrophage-tropic strains BaL and ADA [3]: not active
